Reference: PMC9323911, “Comparative Metabolomics Study of the Impact of Articaine and Lidocaine on the Metabolism of SH-SY5Y Neuronal Cells” (Metabolites, 2022)
Entries after “also recorded” stand apart in the source; their conditions may differ. Structures can show the parent of a compound that is named as a salt.

Experiments:
[1] = set-up: method as in PMID 31172838; conditions: neutral species; cited from earlier work
SH-SY5Y cells [2] = conditions: cited from earlier work
[3] = cited from earlier work
[4] = set-up: method as in PMID 31172838; conditions: ATC vs LDC; cited from earlier work
SH-SY5Y cells [5] = assay: 1H NMR metabolic profiling of cell lipid extracts; format: cell-based, human; conditions: lipid extract, vs control
Description: After reaching semiconfluence, 10 mL of cells (1 × 10^6 cells/mL) were plated on 90 mm diameter culture dishes and incubated for 24 h. […] Afterward, the medium was collected and the dishes washed with cold PBS, immediately before the solvent extraction procedure described below. Unexposed cells were used as controls. Each assay comprised duplicates of each condition and three independent assays were performed, giving a total of 6 replicates per condition.
The culture medium was collected from each plate (including cell-free medium incubated under the same conditions) in conical tubes and centrifuged at 1000× g for 10 min. Furthermore, 300 µL of the supernatant were collected for protein precipitation, as described by Kostidis et al.. Briefly, 600 µL of 100% methanol (v/v) at −80 °C were added to the collected supernatant ([…]). The mixture was kept at −20 °C for 30 min and centrifuged at 13,000× g for 20 min. The supernatant was transferred to another tube and vacuum dried (SpeedVac, Eppendorf, Hamburg, Germany). For extracting cellular metabolites, a biphasic extraction protocol (methanol:chloroform:water; 1:1:0.7) was used as previously described. The resulting polar extracts were dried under vacuum in a Speedvac concentrator, and the lipophilic extracts were dried under a nitrogen flow. All extracts were stored at −80 °C prior to NMR analysis.
For NMR analysis, dried aqueous and lipid extracts were dissolved, respectively, in 600 μL of deuterated phosphate buffer (PBS 100 mM, pH 7.4) containing 0.1 mM 3-(trimethylsilyl) propionic acid (TSP-d4), and 600 μL of deuterated chloroform containing 0.03% tetramethylsilane (TMS). After transferring 550 μL of each sample to 5 mm NMR tubes, analysis was performed on a Bruker Avance III HD 500 NMR spectrometer (University of Aveiro, Portuguese NMR Network) operating at 500.13 MHz for ^1H observation, at 298 K. Standard 1D ^1H spectra (pulse programs ‘noesypr1d’ and ‘zg’ for aqueous and lipid samples, respectively) were recorded with 32 k points, 7002.80 Hz spectral width, a 2 s relaxation delay and 512 scans. […]. Two-dimensional NMR spectra, namely, ^1H-^1H TOCSY, J-resolved and ^1H-^13C HSQC spectra, were also recorded for selected samples to aid metabolite identification. Signal assignment was based on matching 1D and 2D spectral information to reference spectra available in Chenomx 9.0 (Edmonton, AB, Canada), BBIOREFCODE-2–0–0 (Bruker Biospin, Rheinstetten, Germany) and HMDB.
To provide a quantitative measurement of metabolic variations, spectral integration and total area normalization of selected signals (vide Supplementary Table S1) were carried out in Amix-Viewer 3.9.15 (Bruker Biospin, Rheinstetten, Germany). For each metabolite, the percentage of variation (or fold change) in exposed samples was calculated relative to respective controls, along with the effect size (ES) and statistical significance (p-value). The variations with larger magnitude (|ES| > 0.8) were expressed in a heatmap. Loadings profiles and heatmap figures were generated using the R software version 4.1.3 (R Core Team (2020). R: A language and environment for statistical computing. R Foundation for Statistical Computing, Vienna, Austria. URL http://www.R-project.org/ accessed 23 May 2022).

[6] = test system: neuronal cells of a different lineage (SHEP); conditions: 24 h; cited from earlier work

| SMILES | Aqueous solubility [1] | effect on cells at very short exposure (SH-SY5Y cells [2]; 5 min exposure) | LD50 (SH-SY5Y cells [2]; 20 min incubation of SH-SY5Y cells) | Plasma half-life [3] | fold lower egg phosphatidylcholine/aqueous buffer partition coefficient (P) than LDC [4] | cholesterol level (SH-SY5Y cells [5]; IC50, 24 h) | cholesteryl esters level (SH-SY5Y cells [5]; IC50, 24 h) | phospholipids level (SH-SY5Y cells [5]; IC50, 24 h) | triglycerides level (SH-SY5Y cells [5]; IC50, 24 h) | LD50 [6] | phosphatidylcholine (PtC) level (SH-SY5Y cells [5]; 24 h) |
| --- | --- | --- | --- | --- | --- | --- | --- | --- | --- | --- | --- |
| CCCNC(C)C(=O)Nc1c(C)csc1C(=O)OC (stereo not drawn) [ATC, Articaine hydrochloride] | 62.1 mM | no effect | 9.0 mM | 20 min | 10 × | significant decrease | prominent increase; also recorded: increased | decreases | decreases | 13.4 mM |  |
| CCN(CC)CC(=O)Nc1c(C)cccc1C [LDC, lidocaine hydrochloride] |  |  |  |  |  |  |  |  | accumulated; also recorded: increased |  | decrease |
